Read-outs that look alike come from different tables or passages of the source.
Columns and labels:
[1] = molecular target: SMARCA4 (Homo sapiens, UniProt P51532); assay: HiBiT assay for protein degradation, Hela SMARCA4-HiBiT cells (A series); format: cell-based; parameters: fuse HiBiT to the carboxy terminus of SMARCA2 (Promega CS302365) or SMARCA4 (Promega CS3023225); host or cells: HeLa (CRISPR/Cas9 HiBiT knock-in); conditions: for DC50: read-out: SMARC A4 Hela HiBit DC50; for Dmax: read-out: SMARC A4 Hela HiBit Dmax(%)
SMARCA4, sequence (P51532 whole entry, the tested form may be a part): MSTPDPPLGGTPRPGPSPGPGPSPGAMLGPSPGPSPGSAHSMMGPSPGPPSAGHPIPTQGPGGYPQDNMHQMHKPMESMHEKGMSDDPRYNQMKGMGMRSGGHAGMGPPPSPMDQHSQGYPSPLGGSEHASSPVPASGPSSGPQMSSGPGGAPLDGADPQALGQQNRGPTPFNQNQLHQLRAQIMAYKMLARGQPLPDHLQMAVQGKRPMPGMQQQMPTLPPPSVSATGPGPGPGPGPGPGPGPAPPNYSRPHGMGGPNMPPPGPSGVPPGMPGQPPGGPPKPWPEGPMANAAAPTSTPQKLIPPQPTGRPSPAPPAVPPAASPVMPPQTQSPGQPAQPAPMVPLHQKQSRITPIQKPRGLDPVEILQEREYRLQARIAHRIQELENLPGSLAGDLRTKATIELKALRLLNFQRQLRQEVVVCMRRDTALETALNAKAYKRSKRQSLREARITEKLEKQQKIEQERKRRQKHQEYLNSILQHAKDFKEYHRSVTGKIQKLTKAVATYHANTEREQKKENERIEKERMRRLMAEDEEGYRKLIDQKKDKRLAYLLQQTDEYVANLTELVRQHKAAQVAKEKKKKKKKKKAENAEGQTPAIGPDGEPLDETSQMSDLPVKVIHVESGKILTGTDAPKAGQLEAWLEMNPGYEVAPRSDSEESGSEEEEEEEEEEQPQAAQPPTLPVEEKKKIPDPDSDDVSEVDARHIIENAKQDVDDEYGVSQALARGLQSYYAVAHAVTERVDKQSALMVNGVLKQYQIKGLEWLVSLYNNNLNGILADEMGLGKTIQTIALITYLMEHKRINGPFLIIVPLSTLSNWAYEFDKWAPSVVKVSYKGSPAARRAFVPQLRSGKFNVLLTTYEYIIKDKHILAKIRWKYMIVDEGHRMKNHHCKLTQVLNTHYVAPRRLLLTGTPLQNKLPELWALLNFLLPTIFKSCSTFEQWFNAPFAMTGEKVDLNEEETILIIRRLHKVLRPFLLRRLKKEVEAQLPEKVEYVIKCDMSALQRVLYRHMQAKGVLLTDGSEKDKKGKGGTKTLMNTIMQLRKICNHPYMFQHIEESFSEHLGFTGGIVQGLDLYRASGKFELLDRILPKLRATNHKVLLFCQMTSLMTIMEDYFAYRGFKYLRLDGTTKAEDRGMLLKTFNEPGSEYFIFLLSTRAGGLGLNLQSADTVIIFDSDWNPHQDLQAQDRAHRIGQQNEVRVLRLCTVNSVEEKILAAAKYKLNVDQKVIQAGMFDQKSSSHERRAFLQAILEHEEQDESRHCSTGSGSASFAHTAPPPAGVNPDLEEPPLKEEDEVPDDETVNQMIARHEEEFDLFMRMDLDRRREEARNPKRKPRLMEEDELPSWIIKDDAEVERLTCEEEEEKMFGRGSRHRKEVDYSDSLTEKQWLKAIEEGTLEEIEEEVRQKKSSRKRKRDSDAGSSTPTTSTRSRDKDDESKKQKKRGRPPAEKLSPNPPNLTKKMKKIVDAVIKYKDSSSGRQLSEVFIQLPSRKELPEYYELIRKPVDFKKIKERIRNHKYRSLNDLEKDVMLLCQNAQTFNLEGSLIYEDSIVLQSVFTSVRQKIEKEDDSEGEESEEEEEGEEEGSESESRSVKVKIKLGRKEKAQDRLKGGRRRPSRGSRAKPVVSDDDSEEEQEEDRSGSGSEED
How it was run: (§1)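 HeLa cells engineered by CRISPR/Cas9 to carry a HiBiT tag fused to the C-terminus of SMARCA4 (Promega CS3023225) were grown in DMEM supplemented with FBS and penicillin-streptomycin. After compound exposure, remaining SMARCA4 protein was quantified using the Nano-Glo® HiBiT Lytic Detection Assay (Promega N3050), and curves were fitted in GraphPad Prism.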

[2] = molecular target: SMARCA2 (Homo sapiens, UniProt P51531); assay: HiBiT assay for protein degradation, Hela SMARCA2-HiBiT cells (A series); format: cell-based; parameters: Hela cells were genetically modified via CRISPR/Cas9 to fuse HiBiT to the carboxy terminus of SMARCA2; host or cells: HeLa (CRISPR/Cas9 HiBiT knock-in); conditions: for DC50: read-out: SMARC A2 Hela HiBit DC50; for Dmax: read-out: SMARC A2 Hela HiBit Dmax (%);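 on SMARC A2 Hela HiBit Dmax (%): 24 h compound treatment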
SMARCA2, sequence (P51531 whole entry): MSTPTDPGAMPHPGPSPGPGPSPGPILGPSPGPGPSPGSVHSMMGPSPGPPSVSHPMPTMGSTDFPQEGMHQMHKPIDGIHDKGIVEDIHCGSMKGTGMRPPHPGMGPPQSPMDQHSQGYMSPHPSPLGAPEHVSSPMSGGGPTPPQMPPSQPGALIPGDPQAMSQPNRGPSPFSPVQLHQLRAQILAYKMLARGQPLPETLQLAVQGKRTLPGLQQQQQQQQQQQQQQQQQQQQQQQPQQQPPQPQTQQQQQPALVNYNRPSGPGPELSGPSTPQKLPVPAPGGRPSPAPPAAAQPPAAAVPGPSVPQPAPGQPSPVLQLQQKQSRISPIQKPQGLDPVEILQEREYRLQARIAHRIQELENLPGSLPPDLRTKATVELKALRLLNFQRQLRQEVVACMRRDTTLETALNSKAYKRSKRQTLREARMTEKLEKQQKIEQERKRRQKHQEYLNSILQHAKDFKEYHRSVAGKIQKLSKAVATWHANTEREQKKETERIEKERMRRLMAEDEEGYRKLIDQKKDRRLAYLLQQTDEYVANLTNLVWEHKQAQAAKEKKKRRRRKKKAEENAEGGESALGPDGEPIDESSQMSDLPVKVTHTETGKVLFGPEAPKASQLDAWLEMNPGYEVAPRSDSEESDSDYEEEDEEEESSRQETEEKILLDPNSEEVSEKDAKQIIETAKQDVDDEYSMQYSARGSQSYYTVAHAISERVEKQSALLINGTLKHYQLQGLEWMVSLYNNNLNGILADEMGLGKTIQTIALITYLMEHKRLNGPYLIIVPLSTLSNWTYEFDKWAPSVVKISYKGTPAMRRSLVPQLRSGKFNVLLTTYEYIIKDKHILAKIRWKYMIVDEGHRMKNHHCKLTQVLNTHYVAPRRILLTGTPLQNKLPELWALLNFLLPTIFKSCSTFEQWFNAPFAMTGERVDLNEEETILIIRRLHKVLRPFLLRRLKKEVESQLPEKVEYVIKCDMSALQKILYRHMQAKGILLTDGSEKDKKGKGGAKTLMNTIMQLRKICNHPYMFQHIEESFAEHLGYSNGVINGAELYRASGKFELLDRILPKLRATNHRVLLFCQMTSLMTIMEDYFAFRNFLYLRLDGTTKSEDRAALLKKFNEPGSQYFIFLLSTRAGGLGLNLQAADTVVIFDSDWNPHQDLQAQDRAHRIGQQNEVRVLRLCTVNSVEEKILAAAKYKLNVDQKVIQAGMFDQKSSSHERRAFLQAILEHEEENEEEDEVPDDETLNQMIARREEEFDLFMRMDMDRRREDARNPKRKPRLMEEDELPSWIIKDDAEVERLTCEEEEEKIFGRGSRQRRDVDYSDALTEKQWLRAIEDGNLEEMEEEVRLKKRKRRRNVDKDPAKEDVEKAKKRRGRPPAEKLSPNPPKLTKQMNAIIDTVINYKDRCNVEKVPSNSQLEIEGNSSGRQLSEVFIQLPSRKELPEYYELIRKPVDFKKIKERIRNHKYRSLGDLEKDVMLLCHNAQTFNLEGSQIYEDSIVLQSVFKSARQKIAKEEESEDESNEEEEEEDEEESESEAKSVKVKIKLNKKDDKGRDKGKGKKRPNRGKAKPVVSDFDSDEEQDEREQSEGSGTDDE
How it was run: as §1, with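 “SMARCA2” for “SMARCA4”, “CS302365)” for “CS3023225)”, “treatment,” for “compound exposure,”, “with” for “using”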

[3] = Hela SMARCA4-HiBiT cells, 24 hours treatment
[4] = Hela SMARCA2-HiBiT cells, 24 hours treatment

SMILES	DC50 [1, 3] [nM]	Dmax [1, 3] [%]	DC50 [2, 4] [nM]	Dmax [2, 4] [%]	DC50 [1] [nM]	DC50 [2] [nM]	SMARC A4 Hela HiBit Dmax(%) [1, 3]	SMARC A2 Hela HiBit Dmax (%) [2, 4]	SMARC A2 Hela HiBit Dmax (%) [2]	Dmax ([1]; HeLa) [%]	Dmax ([2]; HeLa) [%]
Cc1ncsc1-c1ccc([C@H](C)NC(=O)[C@@H]2C[C@@H](O)CN2C(=O)[C@@H](n2cc(CCN3CCC(c4ccc5c(c4)C4(CCCCC4)c4nc(=O)c6c(Br)cccc6n4-5)CC3)nn2)C(C)(C)C)cc1 [Compound A54, (2S,4R)-1-((S)-2-(4-(2-(4-(4′-bromo-5′-oxo-5′H-spiro[cyclohexane-1,7′-indolo[1,2-a]quinazolin]-9′-yl)piperidin-1-yl)ethyl)-1H-1,2,3-triazol-1-yl)-3,3-dimethylbutanoyl)-4-hydroxy-N—((S)-1-(4-(4-methylthiazol-5-yl)phenyl)ethyl)pyrrolidine-2-carboxamide]	< 100	> 90	< 100	> 90	–	–	–	–	–	–	–
Cc1ncsc1-c1ccc([C@H](C)NC(=O)[C@@H]2C[C@@H](O)CN2C(=O)[C@@H](n2cc(CCCN3CCC(c4ccc5c(c4)C4(CCCCC4)c4nc(=O)c6c(Br)cccc6n4-5)CC3)nn2)C(C)(C)C)cc1 [Compound A55, (2S,4R)-1-((S)-2-(4-(3-(4-(4′-bromo-5′-oxo-5′H-spiro[cyclohexane-1,7′-indolo[1,2-a]quinazolin]-9′-yl)piperidin-1-yl)propyl)-1H-1,2,3-triazol-1-yl)-3,3-dimethylbutanoyl)-4-hydroxy-N—((S)-1-(4-(4-methylthiazol-5-yl)phenyl)ethyl)pyrrolidine-2-carboxamide]	< 100	> 90	< 100	> 90	–	–	–	–	–	–	–
Cc1ncsc1-c1ccc([C@H](C)NC(=O)[C@@H]2C[C@@H](O)CN2C(=O)[C@@H](n2cc(CCCCN3CCC(c4ccc5c(c4)C4(CCCCC4)c4nc(=O)c6c(Br)cccc6n4-5)CC3)nn2)C(C)(C)C)cc1 [Compound A56, (2S,4R)-1-((S)-2-(4-(4-(4-(4′-bromo-5′-oxo-5′H-spiro[cyclohexane-1,7′-indolo[1,2-a]quinazolin]-9′-yl)piperidin-1-yl)butyl)-1H-1,2,3-triazol-1-yl)-3,3-dimethylbutanoyl)-4-hydroxy-N—((S)-1-(4-(4-methylthiazol-5-yl)phenyl)ethyl)pyrrolidine-2-carboxamide]	< 100	> 90	< 100	> 90	–	–	–	–	–	–	–
Cc1ncsc1-c1ccc([C@H](C)NC(=O)[C@@H]2C[C@@H](O)CN2C(=O)[C@@H](n2cc(CCCCCN3CCC(c4ccc5c(c4)C4(CCCCC4)c4nc(=O)c6c(Br)cccc6n4-5)CC3)nn2)C(C)(C)C)cc1 [Compound A57, (2S,4R)-1-((S)-2-(4-(5-(4-(4′-bromo-5′-oxo-5′H-spiro[cyclohexane-1,7′-indolo[1,2-a]quinazolin]-9′-yl)piperidin-1-yl)pentyl)-1H-1,2,3-triazol-1-yl)-3,3-dimethylbutanoyl)-4-hydroxy-N—((S)-1-(4-(4-methylthiazol-5-yl)phenyl)ethyl)pyrrolidine-2-carboxamide]	< 100	> 90	< 100	> 90	–	–	–	–	–	–	–
Cc1ncsc1-c1ccc([C@H](C)NC(=O)[C@@H]2C[C@@H](O)CN2C(=O)[C@@H](n2cc(CCCCCCN3CCC(c4ccc5c(c4)C4(CCCCC4)c4nc(=O)c6c(Br)cccc6n4-5)CC3)nn2)C(C)(C)C)cc1 [Compound A58, (2S,4R)-1-((S)-2-(4-(6-(4-(4′-bromo-5′-oxo-5′H-spiro[cyclohexane-1,7′-indolo[1,2-a]quinazolin]-9′-yl)piperidin-1-yl)hexyl)-1H-1,2,3-triazol-1-yl)-3,3-dimethylbutanoyl)-4-hydroxy-N—((S)-1-(4-(4-methylthiazol-5-yl)phenyl)ethyl)pyrrolidine-2-carboxamide]	< 100	> 90	< 100	> 90	–	–	–	–	–	–	–
Cc1ncsc1-c1ccc([C@H](C)NC(=O)[C@@H]2C[C@@H](O)CN2C(=O)[C@@H](n2cc([C@H]3CC[C@H](CN4CCC(c5ccc6c(c5)-n5c(nc(=O)c7c(Br)cccc75)C65CCCCC5)CC4)CC3)nn2)C(C)(C)C)cc1 [Compound A62, (2S,4R)-1-((S)-2-(4-((1r,4S)-4-((4-(4′-bromo-5′-oxo-5′H-spiro[cyclohexane-1,7′-indolo[1,2-a]quinazolin]-10′-yl)piperidin-1-yl)methyl)cyclohexyl)-1H-1,2,3-triazol-1-yl)-3,3-dimethylbutanoyl)-4-hydroxy-N—((S)-1-(4-(4-methylthiazol-5-yl)phenyl)ethyl)pyrrolidine-2-carboxamide]	–	–	–	–	< 100	< 100	–	–	–	70 to 90	> 90

Further lines, with some results ahead:

DC50 [1, 3] [nM]	Dmax [1, 3] [%]	DC50 [2, 4] [nM]	Dmax [2, 4] [%]	DC50 [1] [nM]	DC50 [2] [nM]	SMARC A4 Hela HiBit Dmax(%) [1, 3]	SMARC A2 Hela HiBit Dmax (%) [2, 4]	SMILES	SMARC A2 Hela HiBit Dmax (%) [2]	Dmax ([1]; HeLa) [%]	Dmax ([2]; HeLa) [%]
> 1000	< 50	< 100	70 to 90	–	–	–	–	Cc1ncsc1-c1ccc([C@@H](C)NC(=O)[C@@H]2C[C@@H](O)CN2C(=O)C(c2cc(N3CCC(CN4CCC(c5ccc6c(c5)C5(CCCCC5)c5nc(=O)c7c(Br)cccc7n5-6)CC4)CC3)no2)C(C)C)cc1 (stereo partly drawn) [Compound A59, (2S,4R)-1-(2-(3-(4-((4-(4′-bromo-5′-oxo-5′H-spiro[cyclohexane-1,7′-indolo[1,2-a]quinazolin]-9′-yl)piperidin-1-yl)methyl)piperidin-1-yl)isoxazol-5-yl)-3-methylbutanoyl)-4-hydroxy-N—((R)-1-(4-(4-methylthiazol-5-yl)phenyl)ethyl)pyrrolidine-2-carboxamide]	–	–	–
–	–	–	–	< 100	< 100	–	–	Cc1ncsc1-c1ccc([C@H](C)NC(=O)[C@@H]2C[C@@H](O)CN2C(=O)[C@@H](n2cc([C@H]3CC[C@H](CN4CCC(c5ccc6c(c5)C5(CCCCC5)c5nc(=O)c7c(Br)cccc7n5-6)CC4)CC3)nn2)C(C)(C)C)cc1 [Compound A60, (2S,4R)-1-((S)-2-(4-((1r,4S)-4-((4-(4′-bromo-5′-oxo-5′H-spiro[cyclohexane-1,7′-indolo[1,2-a]quinazolin]-9′-yl)piperidin-1-yl)methyl)cyclohexyl)-1H-1,2,3-triazol-1-yl)-3,3-dimethylbutanoyl)-4-hydroxy-N—((S)-1-(4-(4-methylthiazol-5-yl)phenyl)ethyl)pyrrolidine-2-carboxamide]	A (key: A (>90% degradation); B (70-90% degradation); C (50-69% degradation); D (<50% degradation))	–	–
–	–	–	–	< 100	< 100	A (A (>90% degradation))	A (A (>90% degradation))	Cc1ncsc1-c1ccc([C@H](C)NC(=O)[C@@H]2C[C@@H](O)CN2C(=O)[C@@H](n2cc([C@H]3C[C@H](CN4CCC(c5ccc6c(c5)C5(CCCCC5)c5nc(=O)c7c(Br)cccc7n5-6)CC4)C3)nn2)C(C)(C)C)cc1 [Compound A61, (2S,4R)-1-((S)-2-(4-((1r,3S)-3-((4-(4′-bromo-5′-oxo-5′H-spiro[cyclohexane-1,7′-indolo[1,2-a]quinazolin]-9′-yl)piperidin-1-yl)methyl)cyclobutyl)-1H-1,2,3-triazol-1-yl)-3,3-dimethylbutanoyl)-4-hydroxy-N—((S)-1-(4-(4-methylthiazol-5-yl)phenyl)ethyl)pyrrolidine-2-carboxamide]	–	–	–

Source: US20260092071A1, “COMPOUNDS AND COMPOSITIONS AS SMARCA2/4 DEGRADERS AND USES THEREOF” (REGENTS OF THE UNIVERSITY OF MICHIGAN, priority 2022, published 2026)
